Experimental data as given in US12522612B2, “PDE4 inhibitors, pharmaceutical compositions, and therapeutic applications” (BioTheryX, Inc., priority 2019, dated 2026).

Tested on: TNF-α
Assay: Cell-based TNF-α inhibition assay in LPS-induced PBMCs (Meso Scale)
Conditions: PBMC, PBMCs pretreated 1 h, LPS 100 ng/mL 18-24 h, relative to stimulated DMSO control; for inhibition at 0.1 µM: compound concentration 0.1 μM; for inhibition at 1 µM: compound concentration 1 μM
Experimental: Frozen primary blood mononuclear cells (PBMCs) were quick thawed, washed once with RPMI 1640 media supplemented with 10% fetal bovine serum, 1% penicillin, and 1% streptomycin, and plated in a 96 well plate at 200,000 cells per well. The cells were pretreated with DMSO only as a control or a compound for 1 h, and then induced with LPS (lipopolysaccharide) (100 ng/mL) for 18-24 h. The supernatant was analyzed for TNF-α using the Meso Scale assay. Compound activity was determined as a percentage of the stimulated DMSO control. The results are summarized in Table 1, where A represents a percent inhibition value ≥60%; B represents a percent inhibition value <60% and ≥40%; C represents a percent inhibition value <40% and >20%; and D represents a single percent inhibition value <20%.

SMILES	inhibition at 0.1 µM [%]	inhibition at 1 µM [%]
CCOc1cc([C@@H](CS(=O)(=O)C2CC2)N2C(=O)c3csc(NC(=O)COC)c3C2=O)ccc1OC [Compound A11, (S)—N-(5-(2-(cyclopropylsulfonyl)-1-(3-ethoxy-4-methoxyphenyl)ethyl)-4,6-dioxo-5,6-dihydro-4H-thieno[3,4-c]pyrrol-1-yl)-2-methoxyacetamide]	20 to 40	≥ 60
CCOc1cc([C@@H](CS(C)(=O)=O)N2C(=O)c3cc(CCCCC(=O)N4CCC(C#Cc5cccc6c5CN(C5CCC(=O)NC5=O)C6=O)CC4)cc(NC(C)=O)c3C2=O)ccc1OC (stereo partly drawn) [Compound B16, N-(6-(5-(4-((2-(2,6-dioxopiperidin-3-yl)-1-oxoisoindolin-4-yl)ethynyl)piperidin-1-yl)-5-oxopentyl)-2-((S)-1-(3-ethoxy-4-methoxyphenyl)-2-(methylsulfonyl)ethyl)-1,3-dioxoisoindolin-4-yl)acetamide]	≥ 60	≥ 60
CCOc1cc([C@@H](CS(C)(=O)=O)N2C(=O)c3cccc(NC(=O)CCOCCOCCOCCNc4cccc5c4C(=O)N(C4CCC(=O)NC4=O)C5=O)c3C2=O)ccc1OC (stereo partly drawn) [Compound B43, 3-(2-(2-(2-((2-(2,6-Dioxopiperidin-3-yl)-1,3-dioxoisoindolin-4-yl)amino)ethoxy)-ethoxy)ethoxy)-N-(2-((S)-1-(3-ethoxy-4-methoxyphenyl)-2-(methylsulfonyl)ethyl)-1,3-dioxoisoindolin-4-yl)propanamide]	≥ 60	≥ 60
CCOc1cc([C@@H](CS(C)(=O)=O)N2C(=O)c3cccc(NC(=O)CCCCCCNCc4ccc(OCc5scc6c5CN([C@H]5CCC(=O)NC5=O)C6=O)cc4)c3C2=O)ccc1OC [Compound B44, 7-((4-((5-((S)-2,6-Dioxopiperidin-3-yl)-4-oxo-5,6-dihydro-4H-thieno[3,4-c]pyrrol-1-yl)methoxy)benzyl)amino)-N-(2-((S)-1-(3-ethoxy-4-methoxyphenyl)-2-(methylsulfonyl)ethyl)-1,3-dioxoisoindolin-4-yl)heptanamide]		≥ 60
O=C1CCC(N2Cc3c(cc(F)cc3C3CCN(CCCCCCCCCOc4cc(C(=O)Nc5c(Cl)cncc5Cl)ccc4OC(F)F)CC3)C2=O)C(=O)N1 (stereo not drawn) [Compound B45, N-(3,5-Dichloropyridin-4-yl)-4-(difluoromethoxy)-3-((9-(4-(2-(2,6-dioxopiperidin-3-yl)-6-fluoro-1-oxoisoindolin-4-yl)piperidin-1-yl)nonyl)oxy)benzamide]		≥ 60
O=C1CCC(N2Cc3c(cc(F)cc3C3CCN(CCCCCOc4cc(C(=O)Nc5c(Cl)cncc5Cl)ccc4OC(F)F)CC3)C2=O)C(=O)N1 (stereo not drawn) [Compound B46, N-(3,5-Dichloropyridin-4-yl)-4-(difluoromethoxy)-3-((5-(4-(2-(2,6-dioxopiperidin-3-yl)-6-fluoro-1-oxoisoindolin-4-yl)piperidin-1-yl)pentyl)oxy)benzamide]		≥ 60
CCOc1cc([C@@H](CS(C)(=O)=O)N2C(=O)c3cc(C#CCCCCCN4CCC(c5cc(F)cc6c5CN(C5CCC(=O)NC5=O)C6=O)CC4)cc(NC(C)=O)c3C2=O)ccc1OC (stereo partly drawn) [Compound B47, N-(6-(7-(4-(2-(2,6-dioxopiperidin-3-yl)-6-fluoro-1-oxoisoindolin-4-yl)piperidin-1-yl)hept-1-yn-1-yl)-2-((S)-1-(3-ethoxy-4-methoxyphenyl)-2-(methylsulfonyl)ethyl)-1,3-dioxoisoindolin-4-yl)acetamide]		≥ 60
CCOc1cc([C@@H](CS(C)(=O)=O)N2C(=O)c3cccc(NC(=O)COCCOCCOCCOCCNc4cccc5c4C(=O)N(C4CCC(=O)NC4=O)C5=O)c3C2=O)ccc1OC (stereo partly drawn) [Compound B48, 14-((2-(2,6-Dioxopiperidin-3-yl)-1,3-dioxoisoindolin-4-yl)amino)-N-(2-((S)-1-(3-ethoxy-4-methoxyphenyl)-2-(methylsulfonyl)ethyl)-1,3-dioxoisoindolin-4-yl)-3,6,9,12-tetraoxatetradecan-1-amide]		≥ 60
COc1ccc(C2CNC(=O)C2)cc1OCCCCCCCN1CCC(c2cc(F)cc3c2CN(C2CCC(=O)NC2=O)C3=O)CC1 (stereo not drawn) [Compound B53, 3-(6-Fluoro-4-(1-(7-(2-methoxy-5-(5-oxopyrrolidin-3-yl)phenoxy)heptyl)piperidin-4-yl)-1-oxoisoindolin-2-yl)piperidine-2,6-dione]		< 20
COc1ccc(N2C(=O)c3ccc(NCCCCCCCN4CCC(c5cc(F)cc6c5CN(C5CCC(=O)NC5=O)C6=O)CC4)cc3C2=O)cc1OC1CCCC1 (stereo not drawn) [Compound B54, 2-(3-(Cyclopentyloxy)-4-methoxyphenyl)-5-((7-(4-(2-(2,6-dioxopiperidin-3-yl)-6-fluoro-1-oxoisoindolin-4-yl)piperidin-1-yl)heptyl)amino)isoindoline-1,3-dione]		20 to 40
COc1ccc(C2CNC(=O)C2)cc1OCCCCCCCN1CCC(c2cc3c(cc2F)C(=O)N(C2CCC(=O)NC2=O)C3)CC1 (stereo not drawn) [Compound B55, 3-(6-Fluoro-5-(1-(7-(2-methoxy-5-(5-oxopyrrolidin-3-yl)phenoxy)heptyl)piperidin-4-yl)-1-oxoisoindolin-2-yl)piperidine-2,6-dione]		20 to 40
COc1ccc(N2Cc3ccc(NCCCCCCCN4CCC(c5cc(F)cc6c5CN(C5CCC(=O)NC5=O)C6=O)CC4)cc3C2=O)cc1OC1CCCC1 (stereo not drawn) [Compound B56, 3-(4-(1-(7-((2-(3-(Cyclopentyloxy)-4-methoxyphenyl)-3-oxoisoindolin-5-yl)amino)heptyl)piperidin-4-yl)-6-fluoro-1-oxoisoindolin-2-yl)piperidine-2,6-dione]		40 to 60
O=C1CC(c2ccc(OCCCCCCCN3CCC(c4cc(F)cc5c4CN(C4CCC(=O)NC4=O)C5=O)CC3)c(OC3CCCC3)c2)CN1 (stereo not drawn) [Compound B57, 3-(4-(1-(7-(2-(Cyclopentyloxy)-4-(5-oxopyrrolidin-3-yl)phenoxy)heptyl)piperidin-4-yl)-6-fluoro-1-oxoisoindolin-2-yl)piperidine-2,6-dione]		< 20
Nc1ccc2c(c1)C(=O)N(c1ccc(OCCCCCCCN3CCC(c4cc(F)cc5c4CN(C4CCC(=O)NC4=O)C5=O)CC3)c(OC3CCCC3)c1)C2=O (stereo not drawn) [Compound B58, 5-Amino-2-(3-(cyclopentyloxy)-4-((7-(4-(2-(2,6-dioxopiperidin-3-yl)-6-fluoro-1-oxoisoindolin-4-yl)piperidin-1-yl)heptyl)oxy)phenyl)isoindoline-1,3-dione]		< 20
O=C1CCC(N2Cc3c(cc(F)cc3C3CCN(CCCCCCCOc4ccc(N5C(=O)c6ccccc6C5=O)cc4OC4CCCC4)CC3)C2=O)C(=O)N1 (stereo not drawn) [Compound B59, 2-(3-(Cyclopentyloxy)-4-((7-(4-(2-(2,6-dioxopiperidin-3-yl)-6-fluoro-1-oxoisoindolin-4-yl)piperidin-1-yl)heptyl)oxy)phenyl)isoindoline-1,3-dione]		< 20
COc1ccc(N2Cc3ccc(N)cc3C2=O)cc1OCCCCCCCN1CCC(c2cc(F)cc3c2CN(C2CCC(=O)NC2=O)C3=O)CC1 (stereo not drawn) [Compound B60, 3-(4-(1-(7-(5-(6-Amino-1-oxoisoindolin-2-yl)-2-methoxyphenoxy)heptyl)piperidin-4-yl)-6-fluoro-1-oxoisoindolin-2-yl)piperidine-2,6-dione]		20 to 40
O=C1CCC(N2Cc3cc(C4CCN(CCCCCCCOc5cc(C(=O)Nc6c(Cl)cncc6Cl)ccc5OC(F)F)CC4)c(F)cc3C2=O)C(=O)N1 (stereo not drawn) [Compound B61, N-(3,5-Dichloropyridin-4-yl)-4-(difluoromethoxy)-3-((7-(4-(2-(2,6-dioxopiperidin-3-yl)-6-fluoro-1-oxoisoindolin-5-yl)piperidin-1-yl)heptyl)oxy)benzamide]	≥ 60	≥ 60
CCOc1cc([C@@H](CS(C)(=O)=O)N2C(=O)c3cccc(NC(=O)CCCCCCCCC(=O)N[C@H](C(=O)N4C[C@H](O)C[C@H]4C(=O)NCc4ccc(-c5scnc5C)cc4)C(C)(C)C)c3C2=O)ccc1OC [Compound B63, N^1-(2-((S)-1-(3-Ethoxy-4-methoxyphenyl)-2-(methylsulfonyl)ethyl)-1,3-dioxoisoindolin-4-yl)-N^10—((S)-1-((2S,4R)-4-hydroxy-2-((4-(4-methylthiazol-5-yl)benzyl)carbamoyl)pyrrolidin-1-yl)-3,3-dimethyl-1-oxobutan-2-yl)decanediamide]	≥ 60	≥ 60
CCOc1cc([C@@H](CS(C)(=O)=O)N2C(=O)c3cccc(NC(=O)CCOCc4ccc(COCCNc5cccc6c5C(=O)N(C5CCC(=O)NC5=O)C6=O)cc4)c3C2=O)ccc1OC (stereo partly drawn) [Compound B64, 3-((4-((2-((2-(2,6-Dioxopiperidin-3-yl)-1,3-dioxoisoindolin-4-yl)amino)ethoxy)-methyl)benzyl)oxy)-N-(2-((S)-1-(3-ethoxy-4-methoxyphenyl)-2-(methylsulfonyl)ethyl)-1,3-dioxoisoindolin-4-yl)propanamide]	≥ 60	≥ 60
COc1ccc(N2C(=O)c3ccsc3C2=O)cc1OCCCCCCCN1CCC(c2cc(F)cc3c2CN(C2CCC(=O)NC2=O)C3=O)CC1 (stereo not drawn) [Compound B65, 5-(3-((7-(4-(2-(2,6-Dioxopiperidin-3-yl)-6-fluoro-1-oxoisoindolin-4-yl)piperidin-1-yl)heptyl)oxy)-4-methoxyphenyl)-4H-thieno[2,3-c]pyrrole-4,6(5H)-dione]		< 20
COc1ccc(C2CNC(=O)C2)cc1OCCCCCCCNc1cccc2c1C(=O)N(C1CCC(=O)NC1=O)C2=O (stereo not drawn) [Compound B66, 2-(2,6-Dioxopiperidin-3-yl)-4-((7-(2-methoxy-5-(5-oxopyrrolidin-3-yl)phenoxy)-heptyl)amino)isoindoline-1,3-dione]		≥ 60
